The OPERA property sets (Mansouri et al. 2018)
Peptide text beside a SMILES is read from it.

Compound | logP
CC(=O)c1ccccc1S(I)=C(N(C)C)N(C)C (configuration not stated) | -0.81
Cc1c(NC(=O)C(C)N(C)C)c(=O)n(-c2ccccc2)n1C (configuration not stated) | -0.05
CCCNCC(C)C | 2.07
CCCCCCC1(c2ccncc2)CCC(=O)NC1=O (configuration not stated) | 2.94
NC(=O)Nc1ccc(F)cc1 | 1.04
Oc1ccccc1C=Nc1ccccc1 | 3.09
CC12CCC(=O)C=C1CCC1C2C(O)CC2(C)C1CCC2(O)C(=O)COC(=O)CCCCCO (configuration not stated) | 2.79
COc1cccc(OCC(=O)NNC(C)C)c1 | 1.33
CC(C)Br | 2.14
NC(=O)CCCc1ccncc1 | -0.09
Nc1ccc(/N=N/c2ccccc2)cc1 | 3.41
Nc1nc2c(ncn2[C@H]2C[C@H](O)[C@@H](CO)O2)c(=S)[nH]1 | -0.56
C=CBr | 1.57
CCCCOc1cccc(O)c1 | 3.03
OCCCc1ccncc1 | 0.58
CCOP(=S)(OCC)Oc1ccc([N+](=O)[O-])cc1 | 3.83
CC(C)OCCO | 0.05
Cc1ccnc2c(O)ccc(O)c12 | 1.59
CNC(=S)NCCCCc1cnc[nH]1 | 0.39
CCCCOC(=O)n1cnc(CC(NC(=O)C2CCC(=O)N2)C(=O)N2CCCC2C(N)=O)c1 (configuration not stated) | -0.47
Oc1cc(Cl)ccc1Cl | 3.06
CC1CN1C1=CC(=O)C(N2CC2C)=CC1=O (configuration not stated) | 1.07
S=C(N/N=C/c1cc[nH]c1)Nc1ccccc1 | 3.73
CNC(=O)Oc1ccc(C=O)cc1 | 0.99

Compound | logP
NC(=O)c1ccccc1C(N)=O | -1.73
O=C(O)C=Cc1ccc([N+](=O)[O-])cc1 | 2.12
CCOC(=O)Cc1ccccc1 | 2.28
Clc1cc(Cl)c(-c2c(Cl)ccc(Cl)c2Cl)cc1Cl | 7.28
CC(=O)O[C@]1(C(C)=O)CC[C@H]2[C@@H]3C[C@H](C)C4=CC(=O)C=C[C@]4(C)[C@@]3(F)[C@@H](O)C[C@@]21C | 1.5
Nc1cc([N+](=O)[O-])cc([N+](=O)[O-])c1 | 1.89
c1ccc(Nc2ccc3ccccc3c2)cc1 | 4.38
c1cn[nH]c1 | 0.26
CS(=O)(=O)c1ccc(Cl)cc1 | 1.06
Oc1ccc(Cc2ccc(O)cc2)cc1 | 2.91
ClC1CC(Cl)C(Cl)C(Cl)C1Cl (configuration not stated) | 3.53
CCCCCc1cc(OC)c(CC(C)N)cc1OC (configuration not stated) | 4.43
O=C(CBr)NC(CO)C(O)c1ccc([N+](=O)[O-])cc1 (configuration not stated) | 0.66
Cc1cccc2cccc(C)c12 | 4.26
O=[N+]([O-])c1ncc[nH]1 | 0.15
Cc1cc(C(=O)NN)ccn1 | -0.37
CC(C)c1ccc(C(=O)O)cc1 | 3.4
CN(C)P(=O)(N(C)C)N(C)C | 0.28
c1ccc(-c2cccs2)cc1 | 3.74
ClC(Cl)=C(Cl)C(Cl)=C(Cl)Cl | 4.78
O=c1cc[nH]cn1 | -1.38
NCCCCc1ccccn1 | 0.86
COC(=O)NS(=O)(=O)c1ccc(N)cc1 | -0.27
O=C(OCCCc1cnc[nH]1)c1ccccc1 | 2.64

Compound | logP
c1cnc2ncncc2n1 | -0.58
O=c1cnn(C2OC(CO)C(O)C2O)c(=O)[nH]1 (configuration not stated) | -2.14
CN(C)C(N(C)C)=S(I)c1cccc(C#N)c1 (configuration not stated) | -1.1
COc1ccccc1C(N)=O | 0.86
CC(C)(C)c1cccc(C(C)(C)C)n1 | 4.14
CCCCC(=O)O | 1.39
O=C(O)c1cc([N+](=O)[O-])ccc1O | 2.34
O=C(Nc1ccccc1)C(F)(F)F | 2.21
Nc1ccc2c(n1)[nH]c1ccccc12 | 2.6
COC(=O)c1ccc[nH]1 | 1.17
O=[N+]([O-])C=Cc1ccc(Cl)cc1 | 2.44
CCOc1cccc(O)c1 | 1.98
CCCN(CCC)C1CCOc2ccc(O)cc21 (configuration not stated) | 3.17
COc1cc([N+](=O)[O-])c(OC)cc1CC(C)N (configuration not stated) | 1.74
c1ccc2[nH]cnc2c1 | 1.32
CCCCCCn1cc(C)c(=O)[nH]c1=O | 1.93
CC12CCC(=O)C=C1CCC1C2C(O)CC2(C)C1CCC2(O)C(=O)COC(=O)CCCCCC(=O)O (configuration not stated) | 3.26
O=c1nn[nH]c2ccccc12 | 0.83
CN(C)c1cccc2cccnc12 | 2.73
CN(C)C=CC#N | 0.47
C=CC(=O)OCC(C)C | 2.22
NCCN1CCCC1 | 0.08
CN(C)C(=O)Nc1ccc(C(C)(C)C)cc1 | 3.1
CC(=O)N[C@@H](C)C(=O)N[C@@H](CC(C)C)C(=O)N[C@H](C(N)=O)C(C)C (Ac-Ala-Leu-Val-NH2) | -0.14

Compound | logP
NS(=O)(=O)c1nc2ccccc2s1 | 1.33
O=C(O)c1cccc(C(F)(F)F)c1 | 2.95
CCCOC(=O)c1ccccc1C(=O)OCCC | 3.27
C=CCc1cccc2c(=O)c(C)c(-c3ccccc3)oc12 | 4.67
CN(C)C(=O)OCc1ccc(Cl)cc1 | 2.93
CCCCNC(=O)Cn1cnc([N+](=O)[O-])n1 | 0.89
Clc1cccc2nccnc12 | 1.75
CC(C)(C)C#N | 1.08
CC(=O)CC(C)=O | 0.4
CC(=O)c1cn(C)c2ccccc12 | 1.95
Oc1nc(Cl)c(Cl)cc1Cl | 3.21
CC(=O)OC[C@H]1O[C@H](OC(C)=O)[C@H](OC(C)=O)[C@@H](OC(C)=O)[C@@H]1OC(C)=O | 0.63
Fc1cccc(C2CNCCO2)c1 (configuration not stated) | 1.42
COc1ccc(COC(=O)N(C)C)cc1 | 2.2
Oc1cccc(F)c1 | 1.93
Cc1cnnc2ccc(Cl)cc12 | 1.96
CCOC(=O)C(=Cc1ccc(Cl)cc1)C(C)=O | 3.04
CCC(C(N)=O)(C(N)=O)c1ccccc1 | 0.13
CC(C)OC(=O)Nc1cccc(Cl)c1 | 3.51
O=C1C=C(N2CC2)C(=O)c2ccccc21 | 1.71
CCCNCCC | 1.67
COP(=O)(OC)C(O)C(Cl)(Cl)Cl (configuration not stated) | 0.51
O=C1CC(=O)NC(=O)N1 | -1.47
Brc1ccoc1 | 2.18

Compound | logP
C=C(Br)CC1(C(C)C)C(=O)NC(=O)N(C)C1=O (configuration not stated) | 2.11
O=C=O | 0.83
Cn1nnc2ccccc2c1=O | 0.84
CCCCC(=O)OC | 1.96
CCCCNc1nc(NC(C)C)nc(SC(F)F)n1 | 4.75
COc1cccc2c1C(=N)c1c(O)c3c(c(O)c1C2=O)CC(O)(C(=O)CO)CC3OC1CC(N2CCOCC2C#N)C(O)C(C)O1 (configuration not stated) | 1.97
CN(C)CC/C=C1\c2ccccc2CSc2ccccc21 | 4.49
Clc1cccc(Cl)c1 | 3.53
CN=C(O)Oc1cccc(C)c1 | 1.7
COc1cc([C@@H]2c3cc4c(cc3C(O[C@@H]3O[C@@H]5CO[C@@H](C)O[C@H]5[C@H](O)[C@H]3O)C3COC(=O)[C@@H]32)OCO4)cc(OC)c1O (some centres not stated) | 0.6
FC(F)(F)c1nc2c(Br)c(Br)c(Br)c(Br)c2[nH]1 | 4.81
Nc1ccc2cc3ccccc3nc2c1 | 2.77
C=CCN(CC=C)CC=C | 2.59
CC1CCCC(C)N1N=O (configuration not stated) | 1.36
Cn1c(N)nc2cc(Cl)c(Cl)cc21 | 2.98
CNC1=CC(=O)c2ccccc2C1=O | 1.74
COc1cc(C(=O)O)cc(OC)c1O | 1.04
CCC(N)=O | -0.66
Cc1ccc(O)c(C)c1 | 2.3
Cc1ccccc1OCC(=O)O | 1.98
NNC(=O)c1cccc(Cl)c1 | 1.18
O=NN(CCCl)C(=O)NC1CCCC1 | 2.2
O=C1c2ccccc2Cc2ccccc21 | 3.66
N[C@@H](CS)C(=O)O | -2.49

Compound | logP
CC(=O)N[C@H](C(=O)N[C@@H](C)C(=O)N[C@H](C(N)=O)C(C)C)C(C)C (Ac-Val-Ala-Val-NH2) | -0.67
O=C1CN(N=Cc2ccc([N+](=O)[O-])o2)C(=O)N1 | -0.47
CCCCC(N)C(=O)O (configuration not stated) | -1.53
C=CC(=O)c1ccccc1 | 1.88
CC1CCC(NC(=O)N(CCCl)N=O)CC1 (configuration not stated) | 3.3
CC(C)CC(N)C(=O)OCn1ncc2c(=O)[nH]cnc21 (configuration not stated) | 0.19
CC(C)c1ccccc1O | 2.88
Cc1ccc(OCC(=O)O)cc1 | 1.86
CCOc1c(OC)cc(CCN)cc1OC | 1.11
O=C(O)CCCCCc1ccccc1 | 3.27
COc1cc(CCN)cc(OC)c1OC(C)C | 1.52
CN(C)C(N(C)C)=S(I)c1ccc(F)cc1 (configuration not stated) | -0.58
CNC(=O)Oc1cccc2c1OC(C)(C)C2 | 2.32
COc1cccc(C(=O)N(C)C)c1 | 1
O=C(O)COc1ccc2c(c1)CCCC2 | 2.67
CCCCNc1nc(NC)nc(SC(F)F)n1 | 3.7
OC(Cn1ccnc1)c1ccc(CCc2ccccc2)cc1 (configuration not stated) | 3.4
CC(=O)NN | -1.58
CC(C)[C@H](C(=O)OC(C#N)c1cccc(Oc2ccccc2)c1)c1ccc(OC(F)F)cc1 (some centres not stated) | 6.2
Cn1c(N)nc2ccc(C#N)cc21 | 1.29
c1ccc2c(c1)CCCN2 | 2.29
NCCCN1CCN(CCCN)CC1 | -1.43
CCCN(CC)CCC | 2.68
O=Ic1ccccc1 | -1.61

Compound | logP
NC(=O)C1CCN(CCCN2c3ccccc3Sc3ccc(Cl)cc32)CC1 | 4.44
Cc1ccc(COC(=O)N(C)C)cc1 | 2.63
CCC(C)c1cc([N+](=O)[O-])cc(C(C)C)c1O (configuration not stated) | 4.19
c1ccc(-c2ncncn2)cc1 | 1.93
COC(=O)c1ccccc1OC(C)=O | 1.46
CON=C(C(=O)NC1C(=O)N2C(C(=O)OC(C)OC(C)=O)=C(COC(N)=O)CSC12)c1ccco1 (configuration not stated) | 0.89
NC(=O)Nc1ccc(Cl)cc1 | 1.8
COc1cccc(C(=O)NN)c1 | 0.4
O=C(OCCc1ccccc1)c1ccccc1 | 4.01
Cn1ccc2ccccc21 | 2.72
O=[N+]([O-])c1cccc2cc[nH]c12 | 2.63
CCCCCC(=O)Nc1ccccc1 | 3.28
O=[N+]([O-])c1nccn1CC(O)CF (configuration not stated) | -0.52
C(=Nc1ccccc1)c1ccccc1 | 2.82
CCC1OC(=O)C(C)C(OC2CC(C)(OC)C(O)C(C)O2)C(C)C(OC2OC(C)CC(N(C)C)C2O)C(C)(O)CC(C)C(=O)C(C)C(O)C1C (configuration not stated) | 3.12
NC(=O)C(=Cc1ccccc1)C(N)=O | -0.13
Cn1c(=O)sc2ccccc21 | 1.98
CSCS(=O)CC(C)NC(=O)C=Cc1c(C)[nH]c(=O)[nH]c1=O (configuration not stated) | -0.7
